We go through 24 molecules from patent publication US20170121344A1 (Siga Technologies, Inc., priority 2009, published 2017).

Experiment [1] relates to Dengue-2 (Strain New Guinea C). Put plainly: Viral yield assay against Dengue-2 in Vero cells. The experiment is classed as cell-based, Dengue virus. The settings on record: Dengue virus, DENV2, Vero cells, read-out: Activity (EC50 in μM) DENV-2. In outline:
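Infect Vero cells with virus (MOI 0.1), add compound or DMSO, incubate at 37° C, collect progeny at 48 hours post infection, then titrate on Vero cells to obtain EC50.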

The next experiment relates to DENV-1. The experiment in a line: Viral yield assay against DENV-1 in Vero cells. The experiment is classed as cell-based. The settings on record: Dengue virus. On the procedure:
(§1) Compounds that were active in the primary screen were tested for activity in viral yield assays. […] Vero cells in 12-well plates were infected with dengue-2 virus at a multiplicity of infection (MOI) of 0.1, treated with compound (or DMSO as a control), incubated at 37° C., harvested 48 hours post infection and titered on Vero cells as described above. The EC50 was calculated through ExcelFit. Activities against other serotypes of dengue virus were determined in a similar way.

Another experiment deals with DENV-3. Put plainly: Viral yield assay against DENV-3 in Vero cells. To be noted: Dengue virus. It is filed as cell-based. On the procedure: as §1
The next experiment concerns DENV-4. The experiment in a line: Viral yield assay against DENV-4 in Vero cells. It is filed as cell-based. To be noted: Dengue virus. Here is the method: as §1
[2] abbreviates: viral yield assay, MOI 0.1, 48 hours post infection.

The structures appear in SMILES notation. Read-outs that look alike come from different tables or passages of the source.

In the case of `CNCC(=O)Nc1c(C(=O)Nc2cccc(C(F)(F)F)c2)sc2nc(-c3cccs3)ccc12` [Compound 307, 3-[[2-(methylamino)acetyl]amino]-6-(2-thienyl)-N-[3-(trifluoromethyl)phenyl]thieno[2,3-b]pyridine-2-carboxamide], the EC50 (in experiment [1]; with DENV-1 (DENV1); with DENV-3 (DENV3); in the experiment with DENV-4 (DENV4)) was under 5 µM throughout.
As to `C[N+](C)(C)CC(=O)Nc1c(C(=O)Nc2cccc(C(F)(F)F)c2)sc2nc(-c3cccs3)ccc12` [Compound 309, Trimethyl-[2-oxo-2-[[6-(2-thienyl)-2-[[3-(trifluoromethyl)phenyl]carbamoyl]thieno[2,3-b]pyridin-3-yl]amino]ethyl]ammonium], the EC50 (in experiment [1]; with DENV-1 (DENV1); in the experiment with DENV-3 (DENV3); with DENV-4 (DENV4)) was under 5 µM each time.
Take `CCOC(=O)CCC(=O)Nc1c(C(=O)Nc2cccc(C(F)(F)F)c2)sc2nc(-c3cccs3)ccc12` [Compound 310, Ethyl 4-oxo-4-[[6-(2-thienyl)-2-[[3-(trifluoromethyl)phenyl]carbamoyl]thieno[2,3-b]pyridin-3-yl]amino]butanoate]: the EC50 (in experiment [1]; in the experiment on DENV-1 (DENV1); with DENV-3 (DENV3); with DENV-4 (DENV4)) was under 5 µM in each case.
Consider `O=C(O)CCC(=O)Nc1c(C(=O)Nc2cccc(C(F)(F)F)c2)sc2nc(-c3cccs3)ccc12` [Compound 311, 4-oxo-4-[[6-(2-thienyl)-2-[[3-(trifluoromethyl)phenyl]carbamoyl]thieno[2,3-b]pyridin-3-yl]amino]butanoic acid], for which the EC50 (in experiment [1]; in the experiment with DENV-1 (DENV1); in the experiment with DENV-3 (DENV3); in the experiment on DENV-4 (DENV4)) was under 5 µM in each case.
Turning to `CN(C)CC(=O)Nc1c(C(=O)Nc2ccc(OC(F)(F)F)cc2)sc2nc3c(cc12)CN(C)CC3` [Compound 312, 3-[[2-(dimethylamino)acetyl]amino]-6-methyl-N-[4-(trifluoromethoxy)phenyl]-7,8-dihydro-5H-thieno[2,3-b][1,6]naphthyridine-2-carboxamide], the concentration giving a half-maximal response (EC50) (in experiment [1]; with DENV-1 (DENV1); in the experiment with DENV-3 (DENV3); in the experiment on DENV-4 (DENV4)) was under 5 µM throughout.
Regarding `CCNc1c(C(=O)Nc2cccc(C(F)(F)F)c2)sc2nc(-c3cccs3)ccc12` [Compound 321, 3-(ethylamino)-6-(2-thienyl)-N-[3-(trifluoromethyl)phenyl]thieno[2,3-b]pyridine-2-carboxamide], the EC50 (in experiment [1]; in the experiment with DENV-1 (DENV1); with DENV-3 (DENV3); in the experiment on DENV-4 (DENV4)) was under 5 µM each time.
In the case of `CN(C(=O)c1sc2nc(-c3cccs3)ccc2c1N)c1cccc(C(F)(F)F)c1` [Compound 322, 3-amino-N-methyl-6-(2-thienyl)-N-[3-(trifluoromethyl)phenyl]thieno[2,3-b]pyridine-2-carboxamide], the EC50 (commonly the concentration that produces a half-maximal response) in experiment [1] (setting [2]) is under 5 µM; in the experiment with DENV-1 (DENV1, viral yield assay), under 5 µM; in the experiment on DENV-3 (DENV3, viral yield assay) it was under 5 µM; with DENV-4 (DENV4, viral yield assay), under 5 µM.
`N#Cc1c(O)nc2sc(C(=O)Nc3ccc(Br)cc3)c(N)c2c1-c1ccco1` [Compound 325, 3-amino-N-(4-bromophenyl)-5-cyano-4-(2-furyl)-6-hydroxy-thieno[2,3-b]pyridine-2-carboxamide]: the EC50 in experiment [1] (setting [2]) is under 5 µM; in the experiment on DENV-1 (DENV1, viral yield assay), under 5 µM; with DENV-3 (DENV3, viral yield assay) it was under 5 µM; in the experiment with DENV-4 (DENV4, viral yield assay), under 5 µM.
Turning to `Nc1c(C(=O)N(CCC(=O)O)c2cccc(C(F)(F)F)c2)sc2nc(-c3cccs3)ccc12` [Compound 327, 3-[N-[3-amino-6-(2-thienyl)thieno[2,3-b]pyridine-2-carbonyl]-3-(trifluoromethyl)-anilino]propanoic acid], the EC50 is under 5 µM in experiment [1] (setting [2]); under 5 µM in the experiment on DENV-1 (DENV1, viral yield assay); under 5 µM with DENV-3 (DENV3, viral yield assay); under 5 µM with DENV-4 (DENV4, viral yield assay).
As for `Nc1c(C(=O)Nc2nnc(-c3ccccc3)s2)sc2nc3c(cc12)C(=O)CCCC3` [Compound 328], the EC50 in experiment [1] (setting [2]) was under 5 µM; in the experiment on DENV-1 (DENV1, viral yield assay) it was under 5 µM; with DENV-3 (DENV3, viral yield assay), 5 to 25 µM; in the experiment on DENV-4 (DENV4, viral yield assay), under 5 µM.
As to `Nc1c(C(=O)Nc2nnc(-c3ccccc3)s2)sc2nc3c(cc12)C(O)CCCC3` (stereo not drawn) [Compound 329], the EC50 in experiment [1] (setting [2]) was under 5 µM; with DENV-1 (DENV1, viral yield assay), under 5 µM; with DENV-3 (DENV3, viral yield assay) it was 5 to 25 µM; in the experiment on DENV-4 (DENV4, viral yield assay), under 5 µM.
Regarding `Nc1c(C(=O)Nc2nnc(-c3ccccc3)s2)sc2nc3c(cc12)C(F)CCCC3` (stereo not drawn) [Compound 330], the EC50 in experiment [1] (setting [2]) is under 5 µM; in the experiment on DENV-1 (DENV1, viral yield assay), 5 to 25 µM; with DENV-3 (DENV3, viral yield assay), 5 to 25 µM; in the experiment on DENV-4 (DENV4, viral yield assay) it was 5 to 25 µM.
Turning to `Nc1c(C(=O)Nc2ccc(OC(F)(F)F)cc2)sc2nc(-c3ccc(Cl)cc3)ccc12` [Compound 331, 3-amino-6-(4-chlorophenyl)-N-[4-(trifluoromethoxy)phenyl]thieno[2,3-b]pyridine-2-carboxamide], the EC50 in experiment [1] (setting [2]) is under 5 µM; in the experiment with DENV-1 (DENV1, viral yield assay), under 5 µM; in the experiment on DENV-3 (DENV3, viral yield assay), under 5 µM; in the experiment on DENV-4 (DENV4, viral yield assay), 5 to 25 µM.
For `Nc1c(C(=O)Nc2ccc(OC(F)(F)F)cc2)sc2nc(-c3cccc(OC(F)(F)F)c3)ccc12` [Compound 332, 3-amino-6-[3-(trifluoromethoxy)phenyl]-N-[4-(trifluoromethoxy)phenyl]thieno[2,3-b]pyridine-2-carboxamide], the 50% effective concentration (EC50) is under 5 µM in experiment [1] (setting [2]); under 5 µM in the experiment with DENV-1 (DENV1, viral yield assay); under 5 µM in the experiment on DENV-3 (DENV3, viral yield assay); under 5 µM in the experiment with DENV-4 (DENV4, viral yield assay).
Take `Nc1c(C(=O)Nc2ccc(Cl)cc2)sc2nc(-c3ccc(Cl)cc3)ccc12` [Compound 333, 3-amino-N,6-bis(4-chlorophenyl)thieno [2,3-b]pyridine-2-carboxamide]: the EC50 was under 5 µM in experiment [1] (setting [2]); under 5 µM in the experiment with DENV-1 (DENV1, viral yield assay); under 5 µM with DENV-3 (DENV3, viral yield assay); under 5 µM in the experiment with DENV-4 (DENV4, viral yield assay).
`Nc1c(C(=O)Nc2ccc(Br)cn2)sc2nc(-c3ccc(Cl)cc3)ccc12` [Compound 335, 3-amino-N-(5-bromo-2-pyridyl)-6-(4-chlorophenyl)thieno [2,3-b]pyridine-2-carboxamide]: the EC50 in experiment [1] (setting [2]) is under 5 µM; with DENV-1 (DENV1, viral yield assay) it was under 5 µM; with DENV-3 (DENV3, viral yield assay), under 5 µM; in the experiment on DENV-4 (DENV4, viral yield assay) it was under 5 µM.
Regarding `Nc1c(C(=O)Nc2ccc(Br)nc2)sc2nc(-c3ccc(Cl)cc3)ccc12` [Compound 336, 3-amino-N-(6-bromo-3-pyridyl)-6-(4-chlorophenyl)thieno [2,3-b]pyridine-2-carboxamide], the EC50 in experiment [1] (setting [2]) was under 5 µM; in the experiment on DENV-1 (DENV1, viral yield assay), under 5 µM; in the experiment on DENV-3 (DENV3, viral yield assay) it was under 5 µM; in the experiment on DENV-4 (DENV4, viral yield assay) it was under 5 µM.
In the case of `Nc1c(C(=O)Nc2ccc(C(F)F)cc2)sc2nc(-c3ccc(Cl)cc3)ccc12` [Compound 337, 3-amino-6-(4-chlorophenyl)-N-[4-(difluoromethyl)phenyl]thieno[2,3-b]pyridine-2-carboxamide], the EC50 in experiment [1] (setting [2]) was under 5 µM; with DENV-1 (DENV1, viral yield assay), under 5 µM; in the experiment with DENV-3 (DENV3, viral yield assay) it was under 5 µM; in the experiment on DENV-4 (DENV4, viral yield assay), under 5 µM.
`CC(F)(F)c1ccc(NC(=O)c2sc3nc(-c4ccc(Cl)cc4)ccc3c2N)cc1` [Compound 338, 3-amino-6-(4-chlorophenyl)-N-[4-(1,1-difluoro-ethyl)phenyl] thieno[2,3-b] pyridine-2-carboxamide]: the EC50 in experiment [1] (setting [2]) was under 5 µM; in the experiment on DENV-1 (DENV1, viral yield assay) it was under 5 µM; in the experiment with DENV-3 (DENV3, viral yield assay), under 5 µM; in the experiment on DENV-4 (DENV4, viral yield assay), under 5 µM.
For `Nc1c(C(=O)Nc2ccc(OC(F)(F)F)cc2)sc2nc(-c3cccc(OC(F)F)c3)ccc12` [Compound 339, 3-amino-6-[3-(difluoromethoxy)phenyl]-N-[4-(trifluoromethoxy)phenyl]thieno[2,3-b]pyridine-2-carboxamide], the EC50 in experiment [1] (setting [2]) is under 5 µM; with DENV-1 (DENV1, viral yield assay), under 5 µM; with DENV-3 (DENV3, viral yield assay), under 5 µM; with DENV-4 (DENV4, viral yield assay), under 5 µM.
`Nc1c(C(=O)Nc2ccc(OC(F)F)cc2)sc2nc(-c3ccc(Cl)cc3)ccc12` [Compound 340, 3-amino-6-(4-chlorophenyl)-N-[4-(difluoro-methoxy)phe-nyl]thieno[2,3-b]pyridine-2-carboxamide]: the EC50 in experiment [1] (setting [2]) is under 5 µM; in the experiment on DENV-1 (DENV1, viral yield assay), under 5 µM; in the experiment with DENV-3 (DENV3, viral yield assay), under 5 µM; in the experiment with DENV-4 (DENV4, viral yield assay) it was under 5 µM.
Regarding `Nc1c(C(=O)Nc2ccccc2Br)sc2nc(-c3ccc(Cl)cc3)ccc12` [Compound 341, 3-amino-N-(2-bromophenyl)-6-(4-chlorophenyl) thieno[2,3-b] pyridine-2-carboxamide], the EC50 in experiment [1] (setting [2]) was under 5 µM; in the experiment with DENV-1 (DENV1, viral yield assay), under 5 µM; in the experiment on DENV-3 (DENV3, viral yield assay), under 5 µM; in the experiment with DENV-4 (DENV4, viral yield assay), under 5 µM.
Turning to `Nc1c(C(=O)Nc2ccc(Cl)c(Cl)c2)sc2nc(-c3ccc(Cl)cc3)ccc12` [Compound 342, 3-amino-6-(4-chlorophenyl)-N-(3,4-dichloro-phenyl)thieno [2,3-b]pyridine-2-carboxamide], the EC50 is under 5 µM in experiment [1] (setting [2]); under 5 µM with DENV-1 (DENV1, viral yield assay); under 5 µM in the experiment on DENV-3 (DENV3, viral yield assay); under 5 µM in the experiment on DENV-4 (DENV4, viral yield assay).
For `Nc1c(C(=O)Nc2cccc(Cl)c2Cl)sc2nc(-c3ccc(Cl)cc3)ccc12` [Compound 343, 3-amino-6-(4-chlorophenyl)-N-(2,3-dichloro-phenyl)thieno [2,3-b]pyridine-2-carboxamide], the EC50 is under 5 µM in experiment [1] (setting [2]); under 5 µM in the experiment with DENV-1 (DENV1, viral yield assay); under 5 µM in the experiment with DENV-3 (DENV3, viral yield assay); under 5 µM with DENV-4 (DENV4, viral yield assay).
